How the values were obtained:
[1] = biological target: T1, purified human SIRT1 enzyme (Homo sapiens, UniProt Q96EB6); conditions: reported; cited from earlier work
T1 construct: purchased Enzo Life Sciences
T1 sequence (Q96EB6 1-747): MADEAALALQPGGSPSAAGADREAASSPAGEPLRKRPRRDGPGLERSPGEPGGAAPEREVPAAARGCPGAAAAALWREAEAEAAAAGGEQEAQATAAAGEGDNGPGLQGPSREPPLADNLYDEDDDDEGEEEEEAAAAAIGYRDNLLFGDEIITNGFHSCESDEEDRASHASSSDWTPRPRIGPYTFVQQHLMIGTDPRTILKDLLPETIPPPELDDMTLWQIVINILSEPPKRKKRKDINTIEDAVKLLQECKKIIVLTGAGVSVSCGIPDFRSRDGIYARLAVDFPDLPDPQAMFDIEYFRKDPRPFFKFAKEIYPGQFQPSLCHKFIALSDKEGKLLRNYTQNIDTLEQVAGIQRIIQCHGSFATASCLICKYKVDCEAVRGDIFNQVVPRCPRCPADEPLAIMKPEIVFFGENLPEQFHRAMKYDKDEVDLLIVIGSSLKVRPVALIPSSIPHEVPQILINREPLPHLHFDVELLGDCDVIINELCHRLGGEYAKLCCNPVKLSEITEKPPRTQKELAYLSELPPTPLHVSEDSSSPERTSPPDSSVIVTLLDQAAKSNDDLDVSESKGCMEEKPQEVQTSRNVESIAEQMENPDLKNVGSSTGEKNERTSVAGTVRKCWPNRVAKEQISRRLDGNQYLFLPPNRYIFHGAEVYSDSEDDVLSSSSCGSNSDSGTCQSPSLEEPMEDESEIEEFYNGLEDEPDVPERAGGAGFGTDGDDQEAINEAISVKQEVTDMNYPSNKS

acetyl-p53 = conditions: reported; cited from earlier work
[2] = biological target: T1, purified human SIRT1 enzyme; assay: In vitro SIRT assay (Fluor-de-Lys-SIRT1 deacetylase assay); assay type: biochemical; conditions: 50 μM of suramin added to reaction
Experimental: The Fluor-de-Lys-SIRT1 and SIRT2 deacetylase assay were performed as manufacturer's instruction (Enzo Life Sciences, Farmingdale, N.Y.). For competition assay, 50 μM of suramin was added to reaction.

mtp53 = assay: Western blot analysis of acetyl-mtp53 (K382) and mtp53 level; assay type: cell-based; conditions: HS578T; 10 μM suramin 1 hr, then 1 μM YK-3-237 23 hr
Experimental: Preparation of cell lysates and western blot analyses were performed. Antibodies were obtained from the following sources: Ac-p53 (K382; #2525), Ac-α-tubulin (K40; #3971), phospho-ACC (S78; #3661), and ACC (#3676) from Cell Signaling (Danvers, Mass.); PARP (#556494) from BD Pharmingen (San Jose, Calif.); p53 (V1003) from Biomeda (Foster City, Calif.); ERα (sc-543) and SIRT1 (sc-15404) from Santa Cruz (Santa Cruz, Calif.); α-tubulin, β-Actin (A1978), and horseradish peroxidase-conjugated secondary antibodies from Sigma (St. Louis, Mo.). Chemiluminescence reagent was obtained from Santa Cruz or Thermo Scientific (Rockford, Ill.).

SMILES | in vitro SIRT1 activity toward nascent p53 peptide [1] | acetyl-p53 in cells (acetyl-p53) | effect on YK-3-237-mediated SIRT1 activation (competition assay) [2] | effect of pre-treatment on YK-3-237-mediated deacetylation and reduction of mtp53 (mtp53)
O=C(Nc1ccccc1-c1cn2c(CN3CCNCC3)csc2n1)c1cnc2ccccc2n1 [SRT1720] | could not activate in vitro SIRT1 activity toward nascent p53 peptide | reduce acetyl-p53 in cells | – | –
Cc1ccc(C(=O)Nc2ccc(S(=O)(=O)O)c3cc(S(=O)(=O)O)cc(S(=O)(=O)O)c23)cc1NC(=O)c1cccc(NC(=O)Nc2cccc(C(=O)Nc3cc(C(=O)Nc4ccc(S(=O)(=O)O)c5cc(S(=O)(=O)O)cc(S(=O)(=O)O)c45)ccc3C)c2)c1 [suramin] | – | – | antagonized YK-3-237-mediated SIRT1 activation | reversed both deacetylation of mtp53 (K382) and reduction of mtp53 protein

— US10478445B2, “Boronic acid derivatives of resveratrol for activating deacetylase enzymes” (Georgetown University, priority 2013, dated 2019)
